Where two headings read alike, the source gives them in different places.
Key:
[1] = type: physicochemical
Description: (§1) The coloration of cephradine hydrate was determined by the absorbance at 450 nm. The absorbance and stress stability of the cephradine hydrate prepared as described above were determined. • 1. Absorbance
(§2) 1 g of cephradine hydrate was dissolved in 10 ml 10% aqueous sodium carbonate solution. The absorbance was determined at 450 nm (=A450) on a Perkin Elmer 550 S spectrophotometer, with 10% aqueous sodium carbonate solution as a reference solution at room temperature. • 2. Stress Stability Test 1.
Cephradine hydrate prepared enzymatically according to Example III and chemically according to Reference Experiment B) was kept at 40° C. at a relative humidity of 75%. After 0, 2, 4, 6 8, 10 and 12 weeks the absorbance at 450 nm was determined as described above.

[2] = Stress stability test 2 (3 hrs at 100° C., A450); type: physicochemical; conditions: for A450 after stress stability test (3 h, 100° C.): crystallisation pH 4.80, hydrate
Description: as §1, §2
Cephradine hydrate prepared enzymatically according to Example III and crystallised at different temperatures as indicated in Table 3 was maintained during 3 hrs at 100° C. The A450 of the cephradine crystals thus treated was determined as described above.

[3] = Coloration of cephradine hydrate: absorbance at 450 nm; type: physicochemical; conditions: before stress stability test, crystallisation pH 4.80
Description: as §2, with “The coloration of cephradine hydrate was determined by the absorbance at 450 nm. The absorbance and stress stability of the cephradine hydrate prepared as described above were determined. • 1. Absorbance 1 g” for “1 g”

A450 after stress stability test (3 h, 100° C.) [2]	A450 at t = 0 [3]	SMILES	further results
–	–	CC1=C(C(=O)O)N2C(=O)[C@@H](NC(=O)[C@H](N)C3=CCC=CC3)[C@H]2SC1 [Cephradine prepared chemically, cephradine hydrate]	A450 (color stability) ([1]; 0 weeks): 0.028; A450 (color stability) ([1]; 2 weeks): 0.065; A450 (color stability) ([1]; 4 weeks): 0.077; A450 (color stability) ([1]; 6 weeks): 0.161; A450 (color stability) ([1]; 8 weeks): 0.142; A450 (color stability) ([1]; 10 weeks): 0.211
0.301	0.051	CC1=C(C(=O)O)N2C(=O)[C@@H](NC(=O)[C@H](N)C3=CCC=CC3)[C@H]2SC1 [IV, cephradine hydrate]	–
0.056	0.018	CC1=C(C(=O)O)N2C(=O)[C@@H](NC(=O)[C@H](N)C3=CCC=CC3)[C@H]2SC1 [V, cephradine hydrate]	Color stability of cephradine crystals versus crystallization temperature [2]: superior values
0.291	0.021	CC1=C(C(=O)O)N2C(=O)[C@@H](NC(=O)[C@H](N)C3=CCC=CC3)[C@H]2SC1 [VI, cephradine hydrate]	–
0.330	0.017	CC1=C(C(=O)O)N2C(=O)[C@@H](NC(=O)[C@H](N)C3=CCC=CC3)[C@H]2SC1 [VII, cephradine hydrate]	–

— patent US7588913B2, “Process for the preparation of cephradine” (DSM IP Assets B.V., priority 2003, dated 2009)
